Experimental data: patent US20200045972A1, “NOVEL 5-SUBSTITUTED IMIDAZOLYLMETHYL DERIVATIVES” (Bayer CropScience Aktiengesellschaft, priority 2016, published 2020)

Experiment: Measurement of LogP values by HPLC on reversed phase columns (EEC directive 79/831 Annex V.A8)
Assay type: physicochemical
Conditions: method [a]: LC-UV, acidic range, 0.1% formic acid in water and acetonitrile as eluent (linear gradient from 10% to 95% acetonitrile); for chromatographic logP: reversed phase HPLC column
Description: Measurement of LogP values was performed according to EEC directive 79/831 Annex V.A8 by HPLC (High Performance Liquid Chromatography) on reversed phase columns with the following methods: • ^[a] LogP value is determined by measurement of LC-UV, in an acidic range, with 0.1% formic acid in water and acetonitrile as eluent (linear gradient from 10% acetonitrile to 95% acetonitrile). • ^[b] LogP value is determined by measurement of LC-UV, in a neutral range, with 0.001 molar ammonium acetate solution in water and acetonitrile as eluent (linear gradient from 10% acetonitrile to 95% acetonitrile). • ^[c] LogP value is determined by measurement of LC-UV, in an acidic range, with 0.1% phosphoric acid and acetonitrile as eluent (linear gradient from 10% acetonitrile to 95% acetonitrile). If more than one LogP value is available within the same method, all the values are given and separated by “+”. Calibration was done with straight-chain alkan2-ones (with 3 to 16 carbon atoms) with known LogP values (measurement of LogP values using retention times with linear interpolation between successive alkanones). Lambda-max-values were determined using UV-spectra from 200 nm to 400 nm and the peak values of the chromatographic signals.

N#Cc1cncn1CC(O)(Cc1cc(-c2ccccc2)no1)C1(Cl)CC1 (stereo not drawn) [Example I-03, 1-[2-(1-chlorocyclopropyl)-2-hydroxy-3-(3-phenyl-1,2-oxazol-5-yl)propyl]-1H-imidazole-5-carbonitrile]
chromatographic logP: 2.54

N#Cc1cncn1CC(O)(CC1CC(c2ccccc2)=NO1)C1(Cl)CC1 (racemic) [Example I-05, 1-[2-(1-chlorocyclopropyl)-2-hydroxy-3-(3-phenyl-4,5-dihydro-1,2-oxazol-5-yl)propyl]-1H-imidazole-5-carbonitrile]
chromatographic logP: 2.71

N#Cc1cncn1CC(O)(CC1CC(c2ccccc2)=NO1)C1(Cl)CC1 (racemic) [Example I-06, 1-[2-(1-chlorocyclopropyl)-2-hydroxy-3-(3-phenyl-4,5-dihydro-1,2-oxazol-5-yl)propyl]-1H-imidazole-5-carbonitrile]
LogP: 2.59 ^[a]
